# Measured values published in patent US5807845A, “Therapeutic drug for acne vulgaris” (Senju Pharmaceutical Co., Ltd., priority 1996, dated 1998).
# Like-named read-outs stand apart in the source and are kept apart here.
# Tests used:
# [1] = test system: Propionibacterium acnes (P. acnes); assay: Minimal growth inhibitory concentration (MIC) against Propionibacterium acnes; type: cell-based, Propionibacterium acnes (clinically isolated strain); conditions: for MIC: Cutibacterium acnes; on Growth of P. acnes: key: +: growth; -: growth inhibition
# Method: The minimal growth inhibitory concentration (MIC) of the present compound against P. acnes, which is a factor in the onset of acne vulgaris and a member of the normal flora of the skin, was determined.
# (1) EPC-K (dissolved in distilled water)
# Doubling dilutions from 10 mg/ml to 1.953125×10^-2 mg/ml in final concentration
# (2) dl-α-tocopherol and L-ascorbic acid (dissolved in a mixed solution which consists of HC-60 (trademark, manufactured by NOF corporation) and propyleneglycol)
# Dubling dilutions from 5 mg/ml to 7.8125×10^-2 mg/ml in final concentration
# (3) As control, the mixed solution mentioned above was tested.
# This test was performed by the method published by Committee for the Study of Methods for MIC Determination in Anaerobic Bacteria.
# A frozen clinically isolated strain of P. acnes was subcultured on GAM agar medium for 3 generations and suspended in saline at about 10^8 cells/ml. This cell suspension and a 100-fold dilution thereof were used as inocula.
# To molten GAM agar medium was added 1/9 volume of the test solution of a varying concentration and, after thorough mixing, sensitivity assay plates ranging from 10 mg/ml to 1.953125×10^-2 mg/ml in final concentration were prepared (plate pH 6.64-7.10). Using a loopful of the inoculum, each plate was streaked and incubated anaerobically at 37° C. for at least 48 hours. The incubated plate was then observed grossly and the lowest concentration causing a definite inhibition of growth was regarded as the MIC.
# The inoculum was serially diluted 10-fold down to […] and GAM medium was inoculated with each dilution. After culture, the number of colonies were similarly countered for confirmation of the cell count.
# Toxicity, LD50 in rat = conditions: in vivo, intravenous
# [2] = test system: auricular sebaceous glands; assay: Inhibitory effect on the increase in hamster auricular sebaceous gland area (testosterone propionate-induced); type: in vivo, Syrian hamster; conditions: 0.2%, 20 μl to right auricle twice daily for 2 weeks
# Method: It is known that, in acne vulgaris, the sebaceous gland function of the skin is enhanced by elevation of the androgen level. Therefore, the auricular sebaceous glands were expanded by subcutaneous administration of an androgen to hamsters and the inhibitory effect of the present compound on this enlargement was tested.
# Female Syrian hamsters purchased from SLC Japan were used at the age of 7 weeks.
# (2) 0.2% L-ascorbyl DL-α-tocopheryl phosphate potassium (abbreviation: EPC-K)
# In 1 ml of sesame oil was dissolved 80 μg of testosterone propionate and the solution was administered subcutaneously to hamsters every other day for 2 weeks to enlarge auricular sebaceous glands. The test material was applied in a volume of 20 μl to the right auricle twice daily for 2 weeks from the beginning of the test. The normal group was subjected to neither treatment. After 2 weeks, the hamsters were sacrificed. The right auricle was bored with a 9 mm-diameter punch and the sebaceous gland area was measured by the whole mount technique. The data were statistically analyzed by Dunnett's test. The level of significance was p<0.05.
# [3] = 0.15625 mg/ml, 10^6 CFU/ml (Table 3)
# [4] = 0.15625 mg/ml, 10^8 CFU/ml (Table 3)
# [5] = 0.3125 mg/ml, 10^6 CFU/ml (Table 3)
# [6] = 0.3125 mg/ml, 10^8 CFU/ml (Table 3)
# [7] = 0.625 mg/ml, 10^6 CFU/ml (Table 3)
# [8] = 0.625 mg/ml, 10^8 CFU/ml (Table 3)
# [9] = 1.25 mg/ml, 10^6 CFU/ml (Table 3)
# [10] = 1.25 mg/ml, 10^8 CFU/ml (Table 3)
# [11] = 2.5 mg/ml, 10^6 CFU/ml (Table 3)
# [12] = 2.5 mg/ml, 10^8 CFU/ml (Table 3)
# [13] = 5.0 mg/ml, 10^6 CFU/ml (Table 3)
# [14] = 5.0 mg/ml, 10^8 CFU/ml (Table 3)
# [15] = 7.8125 × 10^-2 mg/ml, 10^6 CFU/ml (Table 3)
# [16] = 7.8125 × 10^-2 mg/ml, 10^8 CFU/ml (Table 3)
# [17] = vitamins in HC-60/propyleneglycol mixed solution, cell counts 10^8 and 10^6 CFU/ml (Table 3), read-out: MIC
compound,measurement,setting,value
"Cc1c(C)c2c(c(C)c1OP(=O)(O)OC1=C(O)[C@@H]([C@@H](O)CO)OC1=O)CCC(C)(CCCC(C)CCCC(C)CCCC(C)C)O2 (mixture of isomers) [EPC-K, L-ascorbyl DL-α-tocopheryl phosphate potassium]",Growth of P. acnes,"[1]; 0.15625 mg/ml, 10^6 CFU/ml (Table 2)",+
same,Growth of P. acnes,"[1]; 0.15625 mg/ml, 10^8 CFU/ml (Table 2)",+
same,Growth of P. acnes,"[1]; 0.3125 mg/ml, 10^6 CFU/ml (Table 2)",-
same,Growth of P. acnes,"[1]; 0.3125 mg/ml, 10^8 CFU/ml (Table 2)",+
same,Growth of P. acnes,"[1]; 0.625 mg/ml, 10^6 CFU/ml (Table 2)",-
same,Growth of P. acnes,"[1]; 0.625 mg/ml, 10^8 CFU/ml (Table 2)",-
same,Growth of P. acnes,"[1]; 1.25 mg/ml, 10^6 CFU/ml (Table 2)",-
same,Growth of P. acnes,"[1]; 1.25 mg/ml, 10^8 CFU/ml (Table 2)",-
same,Growth of P. acnes,"[1]; 2.5 mg/ml, 10^6 CFU/ml (Table 2)",-
same,Growth of P. acnes,"[1]; 2.5 mg/ml, 10^8 CFU/ml (Table 2)",-
same,Growth of P. acnes,"[1]; 5.0 mg/ml, 10^6 CFU/ml (Table 2)",-
same,Growth of P. acnes,"[1]; 5.0 mg/ml, 10^8 CFU/ml (Table 2)",-
same,Growth of P. acnes,"[1]; 10.0 mg/ml, 10^6 CFU/ml (Table 2)",-
same,Growth of P. acnes,"[1]; 10.0 mg/ml, 10^8 CFU/ml (Table 2)",-
same,Growth of P. acnes,"[1]; 1.953125 × 10^-2 mg/ml, 10^6 CFU/ml (Table 2)",+
same,Growth of P. acnes,"[1]; 1.953125 × 10^-2 mg/ml, 10^8 CFU/ml (Table 2)",+
same,Growth of P. acnes,"[1]; 3.90625 × 10^-2 mg/ml, 10^6 CFU/ml (Table 2)",+
same,Growth of P. acnes,"[1]; 3.90625 × 10^-2 mg/ml, 10^8 CFU/ml (Table 2)",+
same,Growth of P. acnes,"[1]; 7.8125 × 10^-2 mg/ml, 10^6 CFU/ml (Table 2)",+
same,Growth of P. acnes,"[1]; 7.8125 × 10^-2 mg/ml, 10^8 CFU/ml (Table 2)",+
same,MIC,"[1]; cell count 10^6 /ml, EPC-K dissolved in distilled water",312 µg/mL
same,MIC,"[1]; cell count 10^8 /ml, EPC-K dissolved in distilled water",625 µg/mL
same,LD50,"Toxicity, LD50 in rat",≥ 100 mg/kg
same,Area (auricular sebaceous gland area),"[2]; mean ± standard deviation (n = 7-8), p < 0.01 vs. methanol control",3327 ± 225 μm^2
same,% Inhibition of the increase in auricular sebaceous gland area,[2]; vs. methanol control,72.5%
"Cc1c(C)c2c(c(C)c1O)CCC(C)(CCCC(C)CCCC(C)CCCC(C)C)O2 (racemic) [dl-α-Tocopherol, dl-α-tocopherol]",Growth of P. acnes,[1]; [3],+
same,Growth of P. acnes,[1]; [4],+
same,Growth of P. acnes,[1]; [5],+
same,Growth of P. acnes,[1]; [6],+
same,Growth of P. acnes,[1]; [7],+
same,Growth of P. acnes,[1]; [8],+
same,Growth of P. acnes,[1]; [9],+
same,Growth of P. acnes,[1]; [10],+
same,Growth of P. acnes,[1]; [11],+
same,Growth of P. acnes,[1]; [12],+
same,Growth of P. acnes,[1]; [13],+
same,Growth of P. acnes,[1]; [14],+
same,Growth of P. acnes,[1]; [15],+
same,Growth of P. acnes,[1]; [16],+
same,MIC,[1]; [17],≥ 5000 µg/mL
"O=C1O[C@H]([C@@H](O)CO)C(O)=C1O [L-Ascorbic acid, L-ascorbic acid]",Growth of P. acnes,[1]; [3],+
same,Growth of P. acnes,[1]; [4],+
same,Growth of P. acnes,[1]; [5],+
same,Growth of P. acnes,[1]; [6],+
same,Growth of P. acnes,[1]; [7],+
same,Growth of P. acnes,[1]; [8],+
same,Growth of P. acnes,[1]; [9],+
same,Growth of P. acnes,[1]; [10],+
same,Growth of P. acnes,[1]; [11],+
same,Growth of P. acnes,[1]; [12],+
same,Growth of P. acnes,[1]; [13],+
same,Growth of P. acnes,[1]; [14],+
same,Growth of P. acnes,[1]; [15],+
same,Growth of P. acnes,[1]; [16],+
same,MIC,[1]; [17],≥ 5000 µg/mL
